This is an account of results in patent US20260021106A1, “COMBINATION THERAPY FOR TREATING CANCERS” (GEISTLICH PHARMA AG, priority 2022, published 2026).

Entries after “also recorded” stand apart in the source; their conditions may differ.

Series [1] deals with hypoxia-inducible factor-la. The experiment in a line: Reverse Phase Protein Array (RPPA), HIF-1α. Format: cell-based, human. Here is the method:
(§1) In vitro assays: Cell viability assay, Western blotting, Colony formation assay, Reverse-phase protein array, and Ultra-high resolution mass spectrometry analysis were performed.

For a further series, the system named is ovarian cancer cells. The experiment in a line: Cell viability assay / cytotoxic effect in ovarian cancer cell lines. Format: cell-based, human. As to the method:
(§2) Human Ovarian cancer cell lines: A2780, Coav3, HeyA8, HeyA8-MDR, Kuramochi, OVCAR3, OVCAR5, OVCAR8, and SKOV3 were obtained and used in studies.
as §1
(§3) In vivo model of ovarian cancer: Pharmacodynamic study and therapeutic experiment using OVCAR8 ovarian cancer model were performed. FIGS. 8A-8B show the cytotoxic effect of GP-2250 on ovarian cancer cells.

The test system of another series is VEGF. The experiment in a line: VEGF secretion in cancer cells. The following applies: compared to vehicle. Format: cell-based. The source says:
(§4) GP-2250 inhibits mTOR, AKT and HIF-1α expression.

The test system of a further series is cancer cells. The experiment in a line: Glycolysis and ATP synthesis in cancer cells. Format: cell-based. The source says: (§5) (ns, not significant, **P<0.01; **P<0.001 (vs. control; Student t-test)).
In series [2] the test system is AKT. The experiment in a line: In vivo pharmacodynamic experiment, OVCAR8 mouse model, AKT. The following applies: dose of 500 mg/kg. As to the method:
as §3
(§6) FIGS. 11A-11B show pharmacodynamics studies of GP-2250.

Another series relates to HIF1α. Nature of the series: Western blotting of ovarian cancer cells, HIF1α. In kind it is cell-based, human. The following applies: treated 24 hours, Western blot. Here is the method: as §4, §2, §1
In a further series the test system is OVCAR8-L. The experiment in a line: In vivo therapy experiment, orthotopic OVCAR8-L ovarian cancer mouse model. The settings on record: GP-2250 500 mg/kg 3 times per week, bevacizumab 6.25 mg/kg, take down day 49. Also noted: species or system mice. Here is the method: FIG. 5 schematically illustrates the experimental design for in vivo testing of the GP-2250 and bevacizumab on OVCAR8-L mice. The experiment includes testing: 1) IgG control (10 mice, 6.25 mg/kg, BW); 2) GP-2250 (10 mice, 500 mg/kg. 3 times per week); 3) Bevacizumab (10 mice, 6.25 mg/kg, BW) (“BEV”); and 4) the combination of GP-2250 and Bevacizumab.
Tumorigenicity of OVCAR8-L was determined using IVIS imaging. IVIS imaging following OCVAR8-L injection. 1×10^6 cells were injected through i.p., and then tumorigenicity was measured. All mice were injected with high-grade ovarian cancer cells (OVCAR8) labeled with luciferase gene by i.p. route. All mice survived until the end of the study. No mice were euthanized due to the effect of tumor. Five weeks after treatment, all mice were euthanized, body weight was measured, and no significant body weight change in each group.
as §3

For series [3], the system named is AKT. Nature of the series: Western blotting of ovarian cancer cells, AKT. Format: cell-based, human. The following applies: treated 24 hours, Western blot. As to the method:
as §4, §2, §1
In general terms: In western blotting, separated proteins are transferred to a membrane and probed.

The test system of the next series is hexokinase 2. The experiment in a line: Hexokinase activity and expression (ultra-high resolution mass spectrometry, FIG. 10). In kind it is cell-based, human. As to the method: as §1, §5
Series [4] concerns mTOR. Nature of the series: Reverse Phase Protein Array (RPPA), mTOR. In kind it is cell-based, human. As to the method:
as §1

In series [5] the test system is mTOR. Nature of the series: Western blotting of ovarian cancer cells, mTOR. Format: cell-based, human. The following applies: treated 24 hours, Western blot. Here is the method: as §4, §2, §1
Series [6] concerns human endothelial cell (hEC) spheroids. Nature of the series: Spheroid assay, VEGF-induced endothelial sprouting. Format: cell-based. Here is the method:
A spheriod assay was performed including growing human endothelial cell (hEC) spheroids and adding VEGF (1000 cells/spheroid; 200 sph/condition) for 24 hours using a hanging drog procedure with methyl-cellulose, then harvesting, adding GP-2250, and suspending in fibrinogen/thrombin matrix. The suspension was then transferred to a 24 well plate and incubated for 24 hours at 37° C. FIG. 1: VEGF-induced Endothelial Sprouting: Impact of GP-2250, Spheroid assay. […] Tip cells form sprouts, and stalk cells form capillary lumen as shown in the image (bottom).
FIG. 4 quantifies the effects of PBS control, Delta-like 4 (DLL4), and GP-2250 (at 2.5 μg/ml or at 10 μg/ml) on VEGF-induced endothelial cell sprouting.

The subject of series [7] is AKT. The experiment in a line: Reverse Phase Protein Array (RPPA), AKT. Format: cell-based, human. Here is the method:
as §1

Series [8] has as its system mTOR. The experiment in a line: In vivo pharmacodynamic experiment, OVCAR8 mouse model, mTOR. The settings on record: dose of 500 mg/kg. As to the method: as §3, §6
Where [9] appears, read: 2.5 μg/ml or 10 μg/ml, compared to control.

For the compound `O=S1(=O)CCOCN1` [GP-2250], in [1], the “hypoxia-inducible factor-la activation and expression level” value is on record as “inhibited”. In the series on ovarian cancer cells, the “apoptosis in ovarian cancer cells” value is listed as “increased apoptosis” and the “proliferation in ovarian cancer cells” value is “reduced proliferation”. For the same compound, the cancer cell viability result with ovarian cancer cells (FIG. 10D, with siRNA targeting hexokinase 1 and hexokinase 2) is reported as “reduces cancer cell viability”. In the series with ovarian cancer cells (HRD (Kuramochi, OVCAR4, OVCAR8) vs HRP (A2780, OVCAR5), 10 ovarian cancer cell lines), the “cytotoxic effect, vulnerability of HRD versus HRP ovarian cancer cells” value is on record as “more vulnerable to GP-2250 than Homologous Recombination Proficiency (HRP) ovarian cancer cells”. The “VEGF secretion in cancer cells” value with VEGF is listed as “significantly reduced VEGF secretion”. Further, in the series on cancer cells, the “ATP synthesis in cancer cells” value is listed as “reduced” and the “glycolysis in cancer cells” value is “decreases glycolysis; also recorded: reduced glycolysis”. Also, the “downregulating AKT activation and expression” value in the series on AKT [2] is on record as “most effective”. Besides, the “HIF1α expression in cancer cells” value in the series on HIF1α is given as “reduced HIF1α expression”. Moreover, in the series on OVCAR8-L, the “nodules (tumor nodule number)” value came out at 2.9±0.48 and the tumor weight was determined as 2.9 ± 0.48 g. For the same compound, the AKT expression entry in the series with AKT [3] is listed as “inhibits”. For the same compound, the “hexokinase activity and protein expression levels” value with hexokinase 2 (FIG. 10C) is “inhibits hexokinase activity and protein expression levels”. The “hexokinase 2 activity and expression” value with hexokinase 2 (ultra-high resolution mass spectrometry (HRMS) analysis) is on record as “significantly reduced”. For the same compound, the “mTOR activation and expression level” value in the series on mTOR [4] is recorded as “inhibited”. In addition, the mTOR expression entry with mTOR [5] was “inhibits”. Further, in [6] (setting [9]), the “number of sprouts per spheroid” value was “statistically significant reductions” and the total sprout length result is recorded as “statistically significant reductions”. Besides, the “VEGF-induced endothelial cell sprouting” value in [6] (GP-2250 10 μg/ml, 24 hours) was “inhibits VEGF-induced endothelial cell sprouting”. The “AKT activation and expression level” value with AKT [7] was “inhibited”. In addition, the “downregulating mTOR activation and expression” value in the series on mTOR [8] was “most effective”.

With “bevacizumab: recombinant humanized monoclonal IgG1 antibody that specifically binds to and blocks the biological effects of VEGF [reference compound]”, in the series on OVCAR8-L, the “nodules (tumor nodule number)” value came to 3.8±0.71 and the tumor weight was 0.43 ± 0.08 g.
